In patent publication US9783505B2, “Substituted diaminopyrimidyl compounds, compositions thereof, and methods of treatment therewith” (Signal Pharmaceuticals, LLC, priority 2013, dated 2017):

Experiments:
PKC delta = molecular target: T1, PKC delta (Homo sapiens, UniProt Q05655); test: PKC delta Assay (384-well time resolved fluorescence, IMAP TR-FRET); format: biochemical; settings: selectivity for PKC-theta over PKC-delta
T1 construct: purchased Invitrogen
Procedure: PKC delta Assay. A 384-well time resolved fluorescence assay was used to monitor PKC delta activity. The PKC delta assay was run in the following assay buffer: 50 mM HEPES pH 7.6, 10 mM MgCl2, 1 mM DTT, 0.01% Triton X-100, 0.01% BSA and 0.1 mM EDTA. To initiate the reaction, 200 nM of Fam-labeled S6-derived peptide (Molecular Devices) and 10 μM of ATP were mixed with 1.5 nM of PKC delta (Invitrogen), for a total assay volume of 25 μL in each well. The assay was incubated at room temperature for 2 hours and terminated using a 60 μL/well mixture of Detection Binding Solution: 70% IMAP Progressive Binding Buffer A, 30% IMAP Progressive Binding Buffer B, 1:600 Progressive Binding Reagent, and 1:400 TR-FRET Tb Donor (Molecular Devices). The assay plates were then incubated overnight at room temperature and read on the Perkin-Elmer Envision Reader.

His-PKC-theta = molecular target: T2, His-PKC-theta (Homo sapiens, UniProt Q04759); test: PKC-theta Assay (384-well time resolved fluorescence, IMAP TR-FRET); format: biochemical; settings: read-out: Act. Level (IC50 in the PKC-theta Assay)
T2 construct: His; purchased Invitrogen
Method in brief: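 Enzyme at 142 pM phosphorylated 200 nM Fam-S6 peptide with 10 μM ATP in 50 mM HEPES pH 7.6, 10 mM MgCl2, 1 mM DTT for 2 h at room temperature. Product was detected after overnight incubation with IMAP binding reagent and Tb donor by time-resolved FRET.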

T1 sequence (Q05655 whole entry): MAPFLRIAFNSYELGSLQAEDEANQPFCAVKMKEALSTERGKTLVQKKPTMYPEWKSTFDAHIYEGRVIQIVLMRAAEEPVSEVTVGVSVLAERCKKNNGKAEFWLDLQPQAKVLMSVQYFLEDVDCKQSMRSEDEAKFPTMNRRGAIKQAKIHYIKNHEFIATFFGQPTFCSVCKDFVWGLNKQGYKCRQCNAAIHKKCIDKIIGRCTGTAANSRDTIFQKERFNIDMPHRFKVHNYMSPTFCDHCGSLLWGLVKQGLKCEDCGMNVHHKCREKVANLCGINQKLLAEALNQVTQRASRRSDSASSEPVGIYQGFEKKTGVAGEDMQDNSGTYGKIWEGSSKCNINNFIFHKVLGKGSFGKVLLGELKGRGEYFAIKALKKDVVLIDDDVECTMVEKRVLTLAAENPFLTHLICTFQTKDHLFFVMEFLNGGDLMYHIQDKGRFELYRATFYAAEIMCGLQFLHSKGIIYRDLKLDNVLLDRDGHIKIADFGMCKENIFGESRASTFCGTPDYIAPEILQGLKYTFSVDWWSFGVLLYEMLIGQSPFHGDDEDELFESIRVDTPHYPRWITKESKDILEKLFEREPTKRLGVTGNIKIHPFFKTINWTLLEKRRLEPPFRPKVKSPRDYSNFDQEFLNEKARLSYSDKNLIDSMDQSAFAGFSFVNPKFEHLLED
T2 sequence (Q04759 whole entry): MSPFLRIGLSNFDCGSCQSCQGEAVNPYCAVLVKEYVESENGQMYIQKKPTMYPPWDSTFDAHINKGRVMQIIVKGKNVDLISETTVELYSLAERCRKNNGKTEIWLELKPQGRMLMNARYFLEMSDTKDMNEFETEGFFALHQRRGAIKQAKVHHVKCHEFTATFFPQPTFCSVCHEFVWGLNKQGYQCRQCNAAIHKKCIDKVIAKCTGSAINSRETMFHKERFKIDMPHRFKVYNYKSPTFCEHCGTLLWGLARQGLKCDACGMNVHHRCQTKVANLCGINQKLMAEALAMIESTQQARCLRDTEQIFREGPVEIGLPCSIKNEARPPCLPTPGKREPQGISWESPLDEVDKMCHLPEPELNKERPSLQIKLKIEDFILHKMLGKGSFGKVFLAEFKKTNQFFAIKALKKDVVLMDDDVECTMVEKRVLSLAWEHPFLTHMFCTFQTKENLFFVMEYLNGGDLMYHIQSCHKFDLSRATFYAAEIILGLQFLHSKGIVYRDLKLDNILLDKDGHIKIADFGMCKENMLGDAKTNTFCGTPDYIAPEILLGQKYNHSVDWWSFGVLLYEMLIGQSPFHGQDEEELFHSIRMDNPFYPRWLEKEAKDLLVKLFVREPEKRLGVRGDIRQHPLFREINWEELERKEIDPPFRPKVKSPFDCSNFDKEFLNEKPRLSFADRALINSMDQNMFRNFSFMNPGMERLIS

Structure (SMILES) | Sel. Level (ratio of IC50 PKC-delta/IC50 PKC-theta) (PKC delta) | IC50 (His-PKC-theta)
CCc1ccc2c(c1)C(CCNc1ncc(C#N)c(N[C@@H]3CC[C@H](O)C(C)(C)C3)n1)C(=O)N2 (stereo partly drawn) [Cmpd 249] | E (selectivity (Sel. Level=ratio of IC50 PKC-delta/IC50 PKC-theta) of >100-fold (selectivity level E)) | < 100 nM
Cc1cccn1CCNc1ncc(C#N)c(N[C@H]2CC[C@@H](C(N)=O)CC2)n1 [Cmpd 324] | G (selectivity between 5- and 20-fold (selectivity level G)) | 800 to 2000 nM
Cc1cc(C(F)(F)F)nn1CCNc1ncc(C#N)c(N[C@@H]2CC(O)C2(C)C)n1 (stereo partly drawn) [Cmpd 225] | H (selectivity level of 5-fold or less (selectivity level H)) | 2000 to 10000 nM
CC1(C)C[C@H](Nc2nc(NCCc3ccon3)ncc2C#N)CC[C@@H]1O [Cmpd 220] | G (selectivity between 5- and 20-fold (selectivity level G)) | 800 to 2000 nM
Cn1cc(CCNc2ncc(C#N)c(N[C@@H]3CC[C@H](O)C(C)(C)C3)n2)c2ccccc21 [Cmpd 292] | F (selectivity of between 20- and 100-fold (selectivity level F)) | < 100 nM
CC1(C)[C@H](O)CCC[C@@H]1Nc1nc(NCCC2C(=O)Nc3ccccc32)ncc1C#N (stereo partly drawn) [Cmpd 307] | G (selectivity between 5- and 20-fold (selectivity level G)) | 100 to 800 nM
CC1(C)C[C@H](Nc2nc(NCCc3cn[nH]c3)ncc2C#N)CC[C@@H]1O [Cmpd 208] | G (selectivity between 5- and 20-fold (selectivity level G)) | 100 to 800 nM
CN(C)C(=O)[C@H]1C[C@@H](Nc2nc(NCCc3c[nH]c4ccccc34)ncc2C#N)C1 [Cmpd 288] | G (selectivity between 5- and 20-fold (selectivity level G)) | 100 to 800 nM
CC1(C)[C@@H](O)C[C@H]1Nc1nc(NCCn2ccc3ccccc32)ncc1C#N [Cmpd 239] | H (selectivity level of 5-fold or less (selectivity level H)) | 2000 to 10000 nM
CCc1cccn1CCNc1ncc(C#N)c(N[C@H]2CC[C@@H](C(N)=O)CC2)n1 [Cmpd 323] | G (selectivity between 5- and 20-fold (selectivity level G)) | 100 to 800 nM
CC1(C)[C@@H](O)C[C@H]1Nc1nc(NCCc2cccc3cc[nH]c23)ncc1C#N [Cmpd 229] | G (selectivity between 5- and 20-fold (selectivity level G)) | 800 to 2000 nM
CC1(C)C[C@H](Nc2nc(NCCc3cccc4cc[nH]c34)ncc2C#N)CCC1O (stereo partly drawn) [Cmpd 217] | G (selectivity between 5- and 20-fold (selectivity level G)) | 100 to 800 nM
CC(F)(F)COc1ncncc1CNc1ncc(C#N)c(N[C@@H]2C[C@](C)(O)C2(C)C)n1 [Cmpd 333] | E (selectivity (Sel. Level=ratio of IC50 PKC-delta/IC50 PKC-theta) of >100-fold (selectivity level E)) | < 100 nM
CC1(C)C[C@H](Nc2nc(NCCc3c[nH]c4ncccc34)ncc2C#N)CC[C@@H]1O [Cmpd 204] | F (selectivity of between 20- and 100-fold (selectivity level F)) | 100 to 800 nM
CC1(C)[C@@H](Nc2nc(NCCC3C(=O)Nc4ccccc43)ncc2C#N)CCC[C@@H]1O (stereo partly drawn) [Cmpd 305] | G (selectivity between 5- and 20-fold (selectivity level G)) | 100 to 800 nM
CC1(C)[C@@H](O)C[C@H]1Nc1nc(NCCc2cn[nH]c2)ncc1C#N [Cmpd 244] | G (selectivity between 5- and 20-fold (selectivity level G)) | 100 to 800 nM
CC1(C)[C@@H](O)C[C@H]1Nc1nc(NCCn2cccc2)ncc1C#N [Cmpd 238] | G (selectivity between 5- and 20-fold (selectivity level G)) | 100 to 800 nM

Structure (SMILES) | Sel. Level (ratio of IC50 PKC-delta/IC50 PKC-theta) (PKC delta) | IC50 (His-PKC-theta)
CC1(C)[C@@H](C(N)=O)C[C@H]1Nc1nc(NCCC2C(=O)Nc3ccccc32)ncc1C#N (stereo partly drawn) [Cmpd 318] | E (selectivity (Sel. Level=ratio of IC50 PKC-delta/IC50 PKC-theta) of >100-fold (selectivity level E)) | < 100 nM
CC1(C)[C@@H](O)C[C@H]1Nc1nc(NCCc2cc3ccccc3[nH]2)ncc1C#N [Cmpd 237] | G (selectivity between 5- and 20-fold (selectivity level G)) | 800 to 2000 nM
CC1(C)C[C@H](Nc2nc(NCCc3ccncc3)ncc2C#N)CC[C@@H]1O [Cmpd 280] | G (selectivity between 5- and 20-fold (selectivity level G)) | 100 to 800 nM
Cc1ncccc1CCNc1ncc(C#N)c(N[C@H]2CC[C@@H](C(N)=O)CC2)n1 [Cmpd 322] | G (selectivity between 5- and 20-fold (selectivity level G)) | 100 to 800 nM
COc1cccc(CCNc2ncc(C#N)c(N[C@H]3CC[C@@H](O)CC3)n2)n1 [Cmpd 327] | H (selectivity level of 5-fold or less (selectivity level H)) | 2000 to 10000 nM
COCc1noc(CCNc2ncc(C#N)c(N[C@@H]3CC(O)C3(C)C)n2)n1 (stereo partly drawn) [Cmpd 236] | H (selectivity level of 5-fold or less (selectivity level H)) | 2000 to 10000 nM
CC1(C)C[C@H](Nc2nc(NCCn3cc(C#N)cn3)ncc2C#N)CC[C@@H]1O [Cmpd 213] | H (selectivity level of 5-fold or less (selectivity level H)) | 2000 to 10000 nM
CC1(C)[C@@H](O)C[C@H]1Nc1nc(NCCc2ccon2)ncc1C#N [Cmpd 228] | G (selectivity between 5- and 20-fold (selectivity level G)) | 800 to 2000 nM
Cc1ccc(CCNc2ncc(C#N)c(N[C@@H]3CC(O)C3(C)C)n2)o1 (stereo partly drawn) [Cmpd 232] | F (selectivity of between 20- and 100-fold (selectivity level F)) | 100 to 800 nM
CC1(C)[C@H](Nc2nc(NCc3cncnc3OCC(F)F)ncc2C#N)C[C@]1(C)O [Cmpd 332] | E (selectivity (Sel. Level=ratio of IC50 PKC-delta/IC50 PKC-theta) of >100-fold (selectivity level E)) | < 100 nM
CCOc1cccc(CCNc2ncc(C#N)c(N[C@@H]3C[C@H](O)C3(C)C)n2)n1 [Cmpd 267] | G (selectivity between 5- and 20-fold (selectivity level G)) | 800 to 2000 nM
CC1(C)C[C@H](Nc2nc(NCCc3cncc(C(F)(F)F)c3)ncc2C#N)CC[C@@H]1O [Cmpd 271] | G (selectivity between 5- and 20-fold (selectivity level G)) | 800 to 2000 nM
Cc1cccc(CCNc2ncc(C#N)c(N[C@@H]3CC[C@H](O)C(C)(C)C3)n2)n1 [Cmpd 250] | G (selectivity between 5- and 20-fold (selectivity level G)) | 800 to 2000 nM
CC1(C)[C@@H](c2nc[nH]n2)C[C@H]1Nc1nc(NCCC2C(=O)Nc3ccccc32)ncc1C#N (stereo partly drawn) [Cmpd 317] | E (selectivity (Sel. Level=ratio of IC50 PKC-delta/IC50 PKC-theta) of >100-fold (selectivity level E)) | < 100 nM
CC1(C)[C@@H](O)C[C@H]1Nc1nc(NCCc2c[nH]c3ccccc23)ncc1C#N [Cmpd 240] | G (selectivity between 5- and 20-fold (selectivity level G)) | < 100 nM
N#Cc1cnc(NCCc2c[nH]c3ccccc23)nc1N[C@H]1C[C@@H](C(N)=O)C1 [Cmpd 290] | F (selectivity of between 20- and 100-fold (selectivity level F)) | 100 to 800 nM
